Source: patent publication US12344603B2 (Genentech, Inc., priority 2020, dated 2025)
Structures can show the parent of a compound that is named as a salt.

target: IRE1α (Homo sapiens (Human), UniProt O75460, D688N); experiment: IRE1α TR-FRET competition binding assay (IRE1α HTRF); conditions: TR-FRET competition binding to kinase domain of IRE1α
Experimental: IRE1α TR-FRET Competition Binding Assay. The affinity of compound binding to the kinase domain of IRE1α was determined using a time-resolved fluorescence resonance energy transfer (TR-FRET) competition assay.
The purified protein (final concentration 0.25 nM) was pre-incubated with anti-His Europium labeled antibody (Life Technologies PV5596, final concentration 2 nM) for one hour at 4° C. in TR-FRET Assay Buffer (50 mM HEPES, pH 7.5, 10 mM MgCl2, 0.083 mM Brij 35, 1 mM DTT, and 0.1% bovine gamma globulin) prior to addition to test compounds. An Alexa fluor 647-labeled probe based on an ATP competitive inhibitor was added to a final concentration of 2 nM. Reactions were carried out for one hour at room temperature in a final volume of 20 μL in 384 well white ProxiPlates (Perkin Elmer 6008289). Binding of the probe to the IRE1α protein was detected in an Envision instrument (PerkinElmer) equipped with a TRF laser option and a LANCE/Delfia Dual/Bias D400/D630 mirror (Ex 347 nm, 1st Em 665 nm, 2nd Em 615 nm).

Chain of IRE1α (O75460 547-977 D688N): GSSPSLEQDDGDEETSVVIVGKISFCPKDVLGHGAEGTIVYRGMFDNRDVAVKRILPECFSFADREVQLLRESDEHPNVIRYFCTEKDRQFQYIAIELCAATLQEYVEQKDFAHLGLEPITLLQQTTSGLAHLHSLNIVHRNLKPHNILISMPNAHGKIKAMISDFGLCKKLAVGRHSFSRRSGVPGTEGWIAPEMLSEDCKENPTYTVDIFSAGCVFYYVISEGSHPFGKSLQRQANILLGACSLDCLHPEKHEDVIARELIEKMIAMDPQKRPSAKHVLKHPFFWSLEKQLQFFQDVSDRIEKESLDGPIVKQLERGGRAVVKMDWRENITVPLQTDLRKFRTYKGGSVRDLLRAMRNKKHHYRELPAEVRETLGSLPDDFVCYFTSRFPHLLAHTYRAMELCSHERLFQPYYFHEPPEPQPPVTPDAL

IC50 [nM]	Structure (SMILES)
0.63	CC(C)n1c(=O)c(-c2cc(F)c(NS(=O)(=O)Cc3ccccc3F)c(F)c2F)cc2cnc(N[C@@H]3CNC[C@@H](O)C3)nc21 (racemic) [Compound 87, 1-(2-Fluorophenyl)-N-(2,3,6-trifluoro-4-(2-((5-hydroxypiperidin-3-yl)amino)-8-isopropyl-7-oxo-7,8-dihydropyrido[2,3-d]pyrimidin-6-yl)phenyl)methanesulfonamide]
0.2	CC(C)n1c(=O)c(-c2cc(F)c(NS(=O)(=O)CC3CCC3(F)F)c(F)c2)nc2cnc(N[C@H]3CC[C@H](N(C)C)CC3)nc21 (mixture of isomers) [Example 250, 1-(2,2-Difluorocyclobutyl)-N-[4-[2-[[4-(dimethylamino)cyclohexyl]amino]-8-isopropyl-7-oxo-pteridin-6-yl]-2,6-difluoro-phenyl]methanesulfonamide]
0.1	CC(C)n1c(=O)c(-c2ccc(NS(=O)(=O)CC3CCC3(F)F)c(F)c2)nc2cnc(N[C@H]3CC[C@H](N(C)C)CC3)nc21 (mixture of isomers) [Example 263, 1-(2,2-Difluorocyclobutyl)-N-[4-[2-[[4-(dimethylamino)cyclohexyl]amino]-8-isopropyl-7-oxo-pteridin-6-yl]-2-fluoro-phenyl]methanesulfonamide]
0.1	CC(C)n1c(=O)c(-c2ccc(NS(=O)(=O)CC3CCCC3(F)F)c(F)c2)nc2cnc(N[C@H]3CC[C@H](N(C)C)CC3)nc21 (mixture of isomers) [Example 264, 1-(2,2-Difluorocyclopentyl)-N-[4-[2-[[4-(dimethylamino)cyclohexyl]amino]-8-isopropyl-7-oxo-pteridin-6-yl]-2-fluoro-phenyl]methanesulfonamide]
0.2	CC(C)n1c(=O)c(-c2ccc(NS(=O)(=O)CC3CCCCC3(F)F)c(F)c2)nc2cnc(N[C@H]3CC[C@H](N(C)C)CC3)nc21 (mixture of isomers) [Example 272, 1-(2,2-Difluorocyclohexyl)-N-[4-[2-[[4-(dimethylamino)cyclohexyl]amino]-8-isopropyl-7-oxo-pteridin-6-yl]-2-fluoro-phenyl]methanesulfonamide]
0.2	CC(C)n1c(=O)c(-c2ccc(NS(=O)(=O)CC3CCC4C(C3)C4(F)F)c(F)c2)nc2cnc(N[C@H]3CC[C@H](N(C)C)CC3)nc21 (mixture of isomers) [Example 273, 1-(7,7-Difluoronorcaran-3-yl)-N-[4-[2-[[(1RS)-4-(dimethylamino)cyclohexyl]amino]-8-isopropyl-7-oxo-pteridin-6-yl]-2-fluoro-phenyl]methanesulfonamide]
2.8	CC(C)n1c(=O)c(-c2cc(F)c(NC(=O)C3CC3F)c(F)c2F)cc2cnc(N[C@H]3CC[C@H](N(C)C)CC3)nc21 (single isomer, unassigned) [Compound 98A, N-(4-(2-(((1r,4r)-4-(Dimethylamino)cyclohexyl)amino)-8-isopropyl-7-oxo-7,8-dihydropyrido[2,3-d]pyrimidin-6-yl)-2,3,6-trifluorophenyl)-2-fluorocyclopropane-1-carboxamide]
2.2	CC(C)n1c(=O)c(-c2cc(F)c(NC(=O)C3CC3F)c(F)c2F)cc2cnc(N[C@H]3CC[C@H](N(C)C)CC3)nc21 (single isomer, unassigned) [Compound 98B, N-(4-(2-(((1r,4r)-4-(Dimethylamino)cyclohexyl)amino)-8-isopropyl-7-oxo-7,8-dihydropyrido[2,3-d]pyrimidin-6-yl)-2,3,6-trifluorophenyl)-2-fluorocyclopropane-1-carboxamide]
0.16	COCCN(C)C1CCC(Nc2ncc3cc(-c4cc(F)c(NS(=O)(=O)Cc5ccccc5)c(F)c4F)c(=O)n(C(C)C)c3n2)CC1 (single isomer, unassigned) [Compound 102A, 1-Phenyl-N-(2,3,6-trifluoro-4-(8-isopropyl-2-((4-((2-methoxyethyl)(methyl)amino)cyclohexyl)amino)-7-oxo-7,8-dihydropyrido[2,3-d]pyrimidin-6-yl)phenyl)methanesulfonamide]
66	COCCN(C)C1CCC(Nc2ncc3cc(-c4cc(F)c(NS(=O)(=O)Cc5ccccc5)c(F)c4F)c(=O)n(C(C)C)c3n2)CC1 (single isomer, unassigned) [Compound 102B, 1-Phenyl-N-(2,3,6-trifluoro-4-(8-isopropyl-2-((4-((2-methoxyethyl)(methyl)amino)cyclohexyl)amino)-7-oxo-7,8-dihydropyrido[2,3-d]pyrimidin-6-yl)phenyl)methanesulfonamide]
0.18	CC(C)n1c(=O)c(-c2ccc(NS(=O)(=O)CCC(F)(F)F)c(F)c2)cc2cnc(NC3CCC(N(C)C)C(F)C3)nc21 (single isomer, unassigned) [Compound 110A, N-(4-(2-((4-(Dimethylamino)-3-fluorocyclohexyl)amino)-8-isopropyl-7-oxo-7,8-dihydropyrido[2,3-d]pyrimidin-6-yl)-2-fluorophenyl)-3,3,3-trifluoropropane-1-sulfonamide]
0.7	CC(C)n1c(=O)c(-c2ccc(NS(=O)(=O)CCC(F)(F)F)c(F)c2)cc2cnc(NC3CCC(N(C)C)C(F)C3)nc21 (single isomer, unassigned) [Compound 110B, N-(4-(2-((4-(Dimethylamino)-3-fluorocyclohexyl)amino)-8-isopropyl-7-oxo-7,8-dihydropyrido[2,3-d]pyrimidin-6-yl)-2-fluorophenyl)-3,3,3-trifluoropropane-1-sulfonamide]
0.73	CC(C)n1c(=O)c(-c2cc(F)c(NS(=O)(=O)CCC(F)(F)F)c(F)c2)cc2cnc(NC3CCC(N(C)C)C(F)C3)nc21 (single isomer, unassigned) [Compound 118A, N-(4-(2-((4-(Dimethylamino)-3-fluorocyclohexyl)amino)-8-isopropyl-7-oxo-7,8-dihydropyrido[2,3-d]pyrimidin-6-yl)-2,6-difluorophenyl)-3,3,3-trifluoropropane-1-sulfonamide]
0.32	CC(C)n1c(=O)c(-c2cc(F)c(NS(=O)(=O)CCC(F)(F)F)c(F)c2)cc2cnc(NC3CC[C@H](N(C)C)C(F)C3)nc21 (single isomer, unassigned) [Compound 118B, N-(4-(2-((4-(Dimethylamino)-3-fluorocyclohexyl)amino)-8-isopropyl-7-oxo-7,8-dihydropyrido[2,3-d]pyrimidin-6-yl)-2,6-difluorophenyl)-3,3,3-trifluoropropane-1-sulfonamide]
0.21	CC(C)n1c(=O)c(-c2ccc(NS(=O)(=O)CC3CCC3(F)F)c(F)c2)cc2cnc(N[C@H]3CC[C@H](N(C)C)CC3)nc21 (single isomer, unassigned) [Compound 153A, 1-(2,2-Difluorocyclobutyl)-N-(4-(2-(((1r,4r)-4-(dimethylamino)cyclohexyl)amino)-8-isopropyl-7-oxo-7,8-dihydropyrido[2,3-d]pyrimidin-6-yl)-2-fluorophenyl)methanesulfonamide]
0.16	CC(C)n1c(=O)c(-c2ccc(NS(=O)(=O)CC3CCC3(F)F)c(F)c2)cc2cnc(N[C@H]3CC[C@H](N(C)C)CC3)nc21 (single isomer, unassigned) [Compound 153B, 1-(2,2-Difluorocyclobutyl)-N-(4-(2-(((1r,4r)-4-(dimethylamino)cyclohexyl)amino)-8-isopropyl-7-oxo-7,8-dihydropyrido[2,3-d]pyrimidin-6-yl)-2-fluorophenyl)methanesulfonamide]
0.26	CCC(C)n1c(=O)c(-c2ccc(NS(=O)(=O)Cc3ccccc3F)c(F)c2)cc2cnc(N[C@@H]3CNC[C@@H](F)C3)nc21 (single isomer, unassigned) [Compound 202A, hydrochloride]
0.26	CCC(C)n1c(=O)c(-c2ccc(NS(=O)(=O)Cc3ccccc3F)c(F)c2)cc2cnc(N[C@@H]3CNC[C@@H](F)C3)nc21 (single isomer, unassigned) [Compound 202B, hydrochloride]
0.1	CC[C@H](C)n1c(=O)c(-c2ccc(NS(=O)(=O)CCC(F)(F)F)c(F)c2)cc2cnc(N[C@H]3CC[C@H](N(C)C)CC3)nc21 (single isomer, unassigned) [Compound 203A]
0.21	CC[C@@H](C)n1c(=O)c(-c2ccc(NS(=O)(=O)CCC(F)(F)F)c(F)c2)cc2cnc(N[C@H]3CC[C@H](N(C)C)CC3)nc21 (single isomer, unassigned) [Compound 203]
0.24	CC(C)n1c(=O)c(-c2cc(F)c(NS(=O)(=O)CCC(F)(F)F)c(F)c2)nc2cnc(N[C@H]3CC[C@H](N(C)C)[C@@H](F)C3)nc21 (stereo in doubt) [Compound 168A, N-(4-(2-((4-(Dimethylamino)-3-fluorocyclohexyl)amino)-8-isopropyl-7-oxo-7,8-dihydropteridin-6-yl)-2,6-difluorophenyl)-3,3,3-trifluoropropane-1-sulfonamide]

same assay, conditions: TR-FRET competition binding to kinase domain of IRE1α; hydrochloride

IC50 [nM]	Structure (SMILES)
0.13	CC(C)n1c(=O)c(-c2ccc(NS(=O)(=O)CCC(F)(F)F)c(F)c2)cc2cnc(NC3CCC(N(C)C)C(F)C3)nc21 (racemic) [Compound 154, N-(4-(2-((4-(Dimethylamino)-3-fluorocyclohexyl)amino)-8-isopropyl-7-oxo-7,8-dihydropyrido[2,3-d]pyrimidin-6-yl)-2-fluorophenyl)-3,3,3-trifluoropropane-1-sulfonamide hydrochloride]
